Results as given in US6136830A, “Sulphonyloxadiazolones and their use as microbicides” (Bayer Aktiengesellschaft, priority 1997, dated 2000).

Tested on: not listed separately
Experiment: log P by HPLC (EEC-Directive 79/831 Annex V. A8)
Type: physicochemical
Settings: gradient method, acetonitrile/0.1% aqueous phosphoric acid
Protocol: The log P values were determined according to EEC-Directive 79/831 Annex V. A8 by HPLC (gradient method, acetonitrile/0.1% aqueous phosphoric acid).

Structure (SMILES)	chromatographic logP
COC(=O)c1ccc(Oc2noc(=O)n2S(=O)(=O)c2c(C)noc2C)cc1 [Example 2]	3.07
Cc1cccc(C)c1Oc1noc(=O)n1S(=O)(=O)c1c(C)noc1C [Example 3]	3.54
Cc1ccc(C(C)C)c(Oc2noc(=O)n2S(=O)(=O)c2c(C)noc2C)c1 [Example 4]	4.19
Cc1ccc(Oc2noc(=O)n2S(=O)(=O)c2c(C)noc2C)c(C)c1 [Example 5]	3.63
Cc1ccccc1Oc1noc(=O)n1S(=O)(=O)c1c(C)noc1C [Example 7]	3.28
Cc1noc(C)c1S(=O)(=O)n1c(Oc2ccc(Cl)cc2)noc1=O [Example 8]	3.45

Tested on: Phytophthora infestans
Experiment: whole plant or invertebrate
Type: in vivo, Phytophthora infestans (on tomato plants)
Settings: in Solanum lycopersicum, 72 h, read-out: Efficacy in %

Structure (SMILES)	pest or weed control at 50 g/ha
Cc1noc(C)c1S(=O)(=O)n1c(N(C)C2CCCCC2)noc1=O	85%
Cc1ccc(C)c(Oc2noc(=O)n2S(=O)(=O)c2c(C)noc2C)c1	94%
Cc1ccc(C)c(Oc2noc(=O)n2S(=O)(=O)c2c(N)noc2C)c1	96%
Cc1ccc(Oc2noc(=O)n2S(=O)(=O)c2c(C)noc2C)cc1C	95%
Cc1ccc(Oc2noc(=O)n2S(=O)(=O)c2c(N)noc2C)cc1C	95%
Cc1cc(C)cc(Oc2noc(=O)n2S(=O)(=O)c2c(C)noc2C)c1	96%
Cc1cc(C)cc(Oc2noc(=O)n2S(=O)(=O)c2c(N)noc2C)c1	95%
COc1ccc(Oc2noc(=O)n2S(=O)(=O)c2c(N)noc2C)cc1	91%
COC(=O)c1ccc(Oc2noc(=O)n2S(=O)(=O)c2c(C)noc2C)cc1 [drawing 39]	86%
Cc1ccc(Oc2noc(=O)n2S(=O)(=O)c2c(C)noc2C)c(C)c1 [drawing 40]	94%
Cc1cccc(C)c1Oc1noc(=O)n1S(=O)(=O)c1c(C)noc1C [drawing 41]	88%
Cc1ccc(C(C)C)c(Oc2noc(=O)n2S(=O)(=O)c2c(C)noc2C)c1 [drawing 42]	95%
Cc1ccccc1Oc1noc(=O)n1S(=O)(=O)c1c(C)noc1C [drawing 43]	94%
Cc1noc(C)c1S(=O)(=O)n1c(Oc2ccc(Cl)cc2)noc1=O [drawing 44]	97%
